Test [1] deals with T1, PIM1 serine/threonine kinase (Homo sapiens, UniProt P11309).
T1 construct: purchased Carna Bioscience, Inc
The experiment in a line: PIM1 serine/threonine kinase inhibitory effect. Format: biochemical. The note with it: PIM1 serine/threonine kinase activity; ATP 40 μM; 30° C., 30 minutes. The procedure, abridged:
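Compounds were tested in duplicate from 0.01 to 10000 nM final against PIM1 kinase (0.15 μg/ml). The reaction ran for 30 minutes at 30° C with 40 μM ATP and 0.5 μM biotin-tagged substrate at pH 7.0. Phosphorylation was read by time-resolved FRET (OD665/OD620) after 1 h; IC50 by non-linear fit.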

Test [2] concerns the target PIM1 transgenic cells (Ba/F3) (Homo sapiens, UniProt P11309). The experiment in a line: Proliferation inhibitory effect on PIM1 transgenic cells. The note with it: proliferation inhibition, 72 hours, Cell Counting Kit-8, read-out: PIM1 IC50. It counts as cell-based, mouse. The method in brief:
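Mouse Ba/F3 pro-B cells were retrovirally transduced with human PIM1 so that their proliferation depends on PIM1. Cells were treated with compound at 1–10000 nM final for 72 h, then read by CCK-8 (OD450−OD650). Inhibition was set against DMSO (0%) and no-cell blank (100%), and IC50 was obtained by two-parameter logistic regression.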

Test [3] concerns graft-versus-host disease model CB6F1 mice. The test is described as follows: Lymphocyte proliferation inhibitory effect using graft-versus-host disease model animals (splenomegaly formation). Format: in vivo. The note with it: Mus musculus, 240 h, oral, twice a day for 10 days, GVHD model CB6F1 mice, read-out: Inhibition rate (%) (splenomegaly formation); for inhibition in vivo at 6 mg/kg: single dose 6 mg/kg; for inhibition in vivo at 20 mg/kg: single dose 20 mg/kg; for inhibition in vivo at 30 mg/kg: single dose 30 mg/kg; for inhibition in vivo at 10 mg/kg: single dose 10 mg/kg. As for the experimental part:
BALB/c mice (8-week-aged female) were euthanized, and then the spleen was removed from each mouse. Then, hemolysis treatment was performed to isolate spleen cells. The obtained spleen cells were intravenously transplanted into CB6F1 mice (8-week-aged female), which are C57BL/6 and BALB/c F1 mice, to prepare a model, and splenomegaly was induced. For transplantation, spleen cells for 1.2 BALB/c mouse were used for one CB6F1 mouse.
Each test substance shown in Table 64 was weighed and dissolved in a 0.5% methyl cellulose solution, thereby preparing test substance solutions of 0.3 to 10 mg/mL.
A vehicle (0.5% methyl cellulose solution) or test substance was orally administered to each CB6F1 mouse after transplantation at a dose of 3 to 50 mg/kg in terms of body weight twice a day for 10 days from the day after transplantation. The mouse was euthanized on the 11th day from the start of administration, then the spleen was removed therefrom, and the wet weight of the spleen was measured. For each of CB6F1 mice that had not undergone transplantation as a control group, the wet weight of the spleen was also measured.
The splenomegaly formation inhibition rate when the spleen weights of the mice to which the vehicle was administered after transplantation and the mice on which transplantation had not been performed were 0% and 100%, respectively, was calculated.

SMILES strings stand for the structures. pIC50: −log10 of the molar value. Structures can show the parent of a compound that is named as a salt.

Chain of PIM1 transgenic cells (Ba/F3) (P11309 whole entry, stated change not applied): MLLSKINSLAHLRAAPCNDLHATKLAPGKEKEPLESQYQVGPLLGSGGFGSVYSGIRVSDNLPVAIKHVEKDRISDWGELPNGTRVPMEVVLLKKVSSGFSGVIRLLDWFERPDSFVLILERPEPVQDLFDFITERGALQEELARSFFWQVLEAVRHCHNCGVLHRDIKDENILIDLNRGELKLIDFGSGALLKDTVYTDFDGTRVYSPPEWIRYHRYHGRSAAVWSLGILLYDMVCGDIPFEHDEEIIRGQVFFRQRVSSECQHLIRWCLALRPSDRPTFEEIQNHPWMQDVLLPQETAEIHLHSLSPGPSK
T1 sequence (P11309 whole entry): as the sequence (P11309 whole entry, stated change not applied) above

`Cc1c(F)cc(-c2n[nH]c(=O)o2)cc1N[C@@H](C)[C@H]1CCNC[C@H]1F` [Example 227, 5-[3-fluoro-5-({(1S)-1-[(3S,4R)-3-fluoropiperidin-4-yl]ethyl}amino)-4-methylphenyl]-1,3,4-oxadiazol-2(3H)-one] gave a pIC50 in test [1] of 8.11. Besides, in test [2], the GI50 was determined as 24 nM. Besides, in test [3], the inhibition in vivo at 6 mg/kg was found to be 16.7% and the inhibition in vivo at 20 mg/kg worked out at 32.7%.
The molecule `C[C@H](Nc1cc(-c2n[nH]c(=O)o2)ccc1C(F)(F)F)[C@H]1CC[C@H](N)CC1` [Example 106, 5-[3-({(1S)-1-[(1r,4S)-4-aminocyclohexyl]ethyl}amino)-4-(trifluoromethyl)phenyl]-1,3,4-oxadiazol-2(3H)-one hydrochloride] showed a pIC50 in test [1] of 8.82. Also, the GI50 in test [2] is 19 nM. In test [3], the inhibition in vivo at 30 mg/kg was 39.8%.
In test [1], `C[C@H](Nc1cc(-c2n[nH]c(=O)o2)cc(F)c1C(F)(F)F)[C@H]1CC[C@H](N)CC1` [Example 151, 5-[3-({(1S)-1-[(1r,4S)-4-aminocyclohexyl]ethyl}amino)-5-fluoro-4-(trifluoromethyl)phenyl]-1,3,4-oxadiazol-2(3H)-one hydrochloride] showed a pIC50 of 8.74. Besides, the GI50 in test [2] was 17 nM. In addition, in test [3], the inhibition in vivo at 10 mg/kg was 33.8% and the inhibition in vivo at 20 mg/kg is 40.3%.
In test [1], `C[C@H](Nc1cc(-c2n[nH]c(=O)o2)cc(F)c1Cl)[C@H]1CC[C@H](N)CC1` [Example 177, 5-[3-({(1S)-1-[(1r,4S)-4-aminocyclohexyl]ethyl}amino)-4-chloro-5-fluorophenyl]-1,3,4-oxadiazol-2(3H)-one hydrochloride] showed a pIC50 of 9.10. Further, the GI50 in test [2] is 26 nM. Besides, in test [3], the inhibition in vivo at 10 mg/kg was 23.7% and the inhibition in vivo at 20 mg/kg turned out to be 39.2%.
Molecule `C[C@H](Nc1cc(-c2n[nH]c(=O)o2)ccc1C(F)(F)F)C1(F)CCNCC1` [Example 125, 5-[3-{[(1S)-1-(4-fluoropiperidin-4-yl)ethyl]amino}-4-(trifluoromethyl)phenyl]-1,3,4-oxadiazol-2(3H)-one hydrochloride] had a pIC50 in test [1] of 8.54. Further, the GI50 in test [2] was 40 nM. In addition, the inhibition in vivo at 30 mg/kg in test [3] turned out to be 45.1%.
As for `C[C@@H]1CNCC[C@@H]1[C@H](C)Nc1cc(-c2n[nH]c(=O)o2)ccc1C(F)(F)F` [Example 217, 5-[3-({(1S)-1-[(3S,4S)-3-methylpiperidin-4-yl]ethyl}amino)-4-(trifluoromethyl)phenyl]-1,3,4-oxadiazol-2(3H)-one], the pIC50 in test [1] is 8.55. Besides, the GI50 in test [2] was found to be 26 nM. For the same molecule, in test [3], the inhibition in vivo at 10 mg/kg came to 36.3% and the inhibition in vivo at 20 mg/kg amounted to 41.7%.
In test [1], `CC[C@@H]1CNCC[C@@H]1[C@H](C)Nc1cc(-c2n[nH]c(=O)o2)cc(F)c1C` [Example 229, 5-[3-({(1S)-1-[(3S,4S)-3-ethylpiperidin-4-yl]ethyl}amino)-5-fluoro-4-methylphenyl]-1,3,4-oxadiazol-2(3H)-one] showed a pIC50 of 8.29. Besides, the GI50 in test [2] stood at 19 nM. In test [3], the inhibition in vivo at 6 mg/kg was 14.4% and the inhibition in vivo at 20 mg/kg was 35.1%.
`C[C@H](Nc1cc(-c2n[nH]c(=O)o2)ccc1C(F)(F)F)[C@@H]1C[C@H](N)C1(C)C` [Example 137, 5-[3-({(1S)-1-[(1R,3S)-3-amino-2,2-dimethylcyclobutyl]ethyl}amino)-4-(trifluoromethyl)phenyl]-1,3,4-oxadiazol-2(3H)-one hydrochloride]: the pIC50 in test [1] was 8.66. Moreover, the GI50 in test [2] was 27 nM. Moreover, the inhibition in vivo at 30 mg/kg in test [3] is 47.5%.
Turning to `C[C@@H]1CNCC[C@@H]1[C@H](C)Nc1cc(-c2n[nH]c(=O)o2)cc(F)c1OC(F)F` [Example 214, 5-[4-(difluoromethoxy)-3-fluoro-5-({(1S)-1-[(3S,4S)-3-methylpiperidin-4-yl]ethyl}amino)phenyl]-1,3,4-oxadiazol-2(3H)-one], the pIC50 in test [1] was 8.74. The GI50 in test [2] came to 34 nM. For the same molecule, in test [3], the inhibition in vivo at 10 mg/kg is 23.3% and the inhibition in vivo at 20 mg/kg came out at 25.3%.
Take `Cc1c(F)cc(-c2n[nH]c(=O)o2)cc1N[C@@H](C)[C@H]1CCNC[C@H]1C` [Example 228]: in test [1], the pIC50 is 8.33. Further, the GI50 in test [2] came out at 15 nM. Besides, in test [3], the inhibition in vivo at 6 mg/kg was determined as 36.7% and the inhibition in vivo at 20 mg/kg amounted to 33.3%.
As to `C[C@@H]1CNCC[C@@H]1[C@H](C)Nc1cc(-c2n[nH]c(=O)o2)cc(F)c1C(F)(F)F` [Example 210, 5-[3-fluoro-5-({(1S)-1-[(3S,4S)-3-methylpiperidin-4-yl]ethyl}amino)-4-(trifluoromethyl)phenyl]-1,3,4-oxadiazol-2(3H)-one], the pIC50 in test [1] was 8.89. For the same molecule, in test [2], the GI50 worked out at 15 nM. In addition, in test [3], the inhibition in vivo at 10 mg/kg was 44.9% and the inhibition in vivo at 20 mg/kg was found to be 48.4%.
For `Cc1c(F)cc(-c2n[nH]c(=O)o2)cc1N[C@@H](C)[C@H]1CC[C@H](N)CC1` [Example 172, 5-[3-({(1S)-1-[(1r,4S)-4-aminocyclohexyl]ethyl}amino)-5-fluoro-4-methylphenyl]-1,3,4-oxadiazol-2(3H)-one dihydrochloride], in test [1], the pIC50 is 8.60. Besides, the GI50 in test [2] came to 49 nM. Moreover, the inhibition in vivo at 20 mg/kg in test [3] is 19.3%.
On to `C[C@H](Nc1cc(-c2n[nH]c(=O)o2)cc(Br)c1Cl)C1CCNCC1` [Example 97, 5-(3-bromo-4-chloro-5-{[(1S)-1-(piperidin-4-yl)ethyl]amino}phenyl)-1,3,4-oxadiazol-2(3H)-one dihydrochloride], for which the pIC50 in test [1] is 8.92. For the same molecule, the GI50 in test [2] came to 55 nM. Moreover, the inhibition in vivo at 50 mg/kg in test [3] (single dose 50 mg/kg) stood at 33%.
On to `C[C@H](Nc1cc(-c2n[nH]c(=O)o2)ccc1C(F)(F)F)[C@H]1C[C@@H](N)C1` [Example 145, 5-[3-({(1S)-1-[(1s,3R)-3-aminocyclobutyl]ethyl}amino)-4-(trifluoromethyl)phenyl]-1,3,4-oxadiazol-2(3H)-one hydrochloride], for which, in test [1], the negative logarithm of the IC50 (pIC50) is 8.40. In addition, in test [2], the GI50 was 61 nM. Further, in test [3], the inhibition in vivo at 10 mg/kg was determined as 27.3% and the inhibition in vivo at 20 mg/kg was found to be 35.6%.

Source of the values: patent US20220024921A1, “1,3,4-OXADIAZOLONE COMPOUND AND PHARMACEUTICAL” (NIPPON SHINYAKU CO., LTD., priority 2018, published 2022).
